Test results: patent publication US8053553B2, “Targeting host proteinases as a therapeutic strategy against viral and bacterial pathogens” (Socpra Sciences Sante Et Humaines, priority 2007, dated 2011)
Non-standard residues stand in square brackets, D forms with d. Residues, ends and D or L forms follow the SMILES beside them. Sar = CNCC(=O)O

target: T1, furin (Homo sapiens, UniProt P09958); assay: biochemical; conditions: furin, Pyr-RTKR-AMC substrate; alanine scanning mutagenesis of the H5 furin cleavage sequence (Table 2); read-out: Ki
T1 construct: made in house; host or cells: Drosophila S2 cells (Invitrogen expression system)
T1 sequence (P09958 108-794 limits assumed): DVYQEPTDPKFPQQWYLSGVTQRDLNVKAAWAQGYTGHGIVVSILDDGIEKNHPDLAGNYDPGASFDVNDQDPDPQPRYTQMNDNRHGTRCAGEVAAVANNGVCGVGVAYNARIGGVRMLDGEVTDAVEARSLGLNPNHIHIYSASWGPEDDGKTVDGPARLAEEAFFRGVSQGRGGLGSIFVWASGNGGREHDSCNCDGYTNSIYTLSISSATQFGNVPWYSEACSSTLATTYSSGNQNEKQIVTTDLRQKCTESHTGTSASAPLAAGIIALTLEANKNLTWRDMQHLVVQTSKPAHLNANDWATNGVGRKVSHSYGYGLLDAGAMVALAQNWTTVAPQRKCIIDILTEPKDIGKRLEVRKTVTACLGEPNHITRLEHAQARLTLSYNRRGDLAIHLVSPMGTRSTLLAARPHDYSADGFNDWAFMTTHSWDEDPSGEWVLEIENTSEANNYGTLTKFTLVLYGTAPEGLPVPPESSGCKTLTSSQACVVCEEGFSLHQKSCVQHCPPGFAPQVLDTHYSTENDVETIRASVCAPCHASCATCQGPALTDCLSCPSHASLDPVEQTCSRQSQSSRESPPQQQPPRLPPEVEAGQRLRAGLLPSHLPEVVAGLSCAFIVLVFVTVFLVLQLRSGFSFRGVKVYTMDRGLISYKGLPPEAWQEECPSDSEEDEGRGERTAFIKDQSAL

`CC(C)[C@H](NC(=O)[C@H](CCCNC(=N)N)NC(=O)[C@H](CCCCN)NC(=O)[C@H](CCCCN)NC(=O)[C@H](CCCNC(=N)N)NC(=O)[C@H](CCCNC(=N)N)NC(=O)[C@H](CCCNC(=N)N)NC(=O)[C@H](C)NC(=O)[C@H](C)NC(=O)[C@@H]1CCCN1C(=O)[C@@H](N)[C@@H](C)O)C(N)=O` (H-TPAARRRKKRV-NH2) and `CC(C)[C@H](NC(=O)[C@H](CCCNC(=N)N)NC(=O)[C@H](CCCCN)NC(=O)[C@H](CCCCN)NC(=O)[C@H](CCCNC(=N)N)NC(=O)[C@H](CCCNC(=N)N)NC(=O)[C@H](CCCNC(=N)N)NC(=O)[C@H](CCC(=O)O)NC(=O)[C@H](C)NC(=O)[C@@H]1CCCN1C(=O)[C@@H](N)[C@@H](C)O)C(N)=O` (H-TPAERRRKKRV-NH2) cannot be ordered by Ki: over 0.1 µM for the first, over 0.1 µM for the second.

`C[C@H](NC(=O)[C@H](C)NC(=O)[C@@H]1CCCN1C(=O)[C@@H](N)[C@@H](C)O)C(=O)N[C@@H](CCCNC(=N)N)C(=O)N[C@@H](CCCNC(=N)N)C(=O)N[C@@H](CCCNC(=N)N)C(=O)N[C@@H](CCCCN)C(=O)N[C@@H](CCCCN)C(=O)N[C@@H](CCCNC(=N)N)C(=O)N(C)CC(N)=O` (H-TPAARRRKKR[Sar]-NH2) and `C[C@H](NC(=O)[C@@H]1CCCN1C(=O)[C@@H](N)[C@@H](C)O)C(=O)N[C@@H](CCC(=O)O)C(=O)N[C@@H](CCCNC(=N)N)C(=O)N[C@@H](CCCNC(=N)N)C(=O)N[C@@H](CCCNC(=N)N)C(=O)N[C@@H](CCCCN)C(=O)N[C@@H](CCCCN)C(=O)N[C@@H](CCCNC(=N)N)C(=O)N(C)CC(N)=O` (H-TPAERRRKKR[Sar]-NH2) cannot be ordered by Ki: over 0.1 µM for the first, over 0.1 µM for the second.

With `C[C@H](NC(=O)[C@@H]1CCCN1C(=O)[C@@H](N)[C@@H](C)O)C(=O)N[C@@H](CCC(=O)O)C(=O)N[C@@H](CCCNC(=N)N)C(=O)N[C@@H](CCCNC(=N)N)C(=O)N[C@@H](CCCNC(=N)N)C(=O)N[C@@H](CCCCN)C(=O)N[C@@H](CCCCN)C(=O)N[C@@H](CCCNC(=N)N)C(N)=O` (H-TPAERRRKKR-NH2) the Ki was over 0.1 µM.

same assay, conditions: furin, Pyr-RTKR-AMC substrate; optimization of the inhibitory peptides (Table 3); read-out: Ki

Going from `CSC[C@H](NC(=O)[C@H](CCCNC(=N)N)NC(=O)[C@H](CCCCN)NC(=O)[C@H](CCCCN)NC(=O)[C@H](CCCNC(=N)N)NC(=O)[C@H](CCCNC(=N)N)NC(=O)[C@H](CCCNC(=N)N)NC(=O)[C@H](C)NC(=O)[C@H](CCCNC(=N)N)NC(=O)[C@H](CCC(N)=O)NC(=O)[C@@H]1CCCN1C(=O)[C@@H](N)[C@@H](C)O)C(N)=O` (H-TPQRARRRKKRC(Me)-NH2) to `CSCC[C@H](NC(=O)[C@H](CCCNC(=N)N)NC(=O)[C@H](CCCCN)NC(=O)[C@H](CCCCN)NC(=O)[C@H](CCCNC(=N)N)NC(=O)[C@H](CCCNC(=N)N)NC(=O)[C@H](CCCNC(=N)N)NC(=O)[C@H](C)NC(=O)[C@H](CCCNC(=N)N)NC(=O)[C@H](CCC(N)=O)NC(=O)[C@@H]1CCCN1C(=O)[C@@H](N)[C@@H](C)O)C(N)=O` (H-TPQRARRRKKRM-NH2), the Ki falls from 0.093 µM to 0.058 µM (1.6-fold).

`C[C@H](NC(=O)[C@H](CCCNC(=N)N)NC(=O)[C@H](CCC(N)=O)NC(=O)[C@@H]1CCCN1C(=O)[C@@H](N)[C@@H](C)O)C(=O)N[C@@H](CCCNC(=N)N)C(=O)N[C@@H](CCCNC(=N)N)C(=O)N[C@@H](CCCNC(=N)N)C(=O)N[C@@H](CCCCN)C(=O)N[C@@H](CCCCN)C(=O)N[C@@H](CCCNC(=N)N)C(=O)N[C@@H](CS)C(N)=O` (H-TPQRARRRKKRC-NH2) and `C[C@H](NC(=O)[C@H](CCCNC(=N)N)NC(=O)[C@H](CCC(N)=O)NC(=O)[C@@H]1CCCN1C(=O)[C@@H](N)[C@@H](C)O)C(=O)N[C@@H](CCCNC(=N)N)C(=O)N[C@@H](CCCNC(=N)N)C(=O)N[C@@H](CCCNC(=N)N)C(=O)N[C@@H](CCCCN)C(=O)N[C@@H](CCCCN)C(=O)N[C@@H](CCCNC(=N)N)C(=O)N[C@@H](CO)C(N)=O` (H-TPQRARRRKKRS-NH2) cannot be ordered by Ki: over 0.1 µM for the first, over 0.1 µM for the second.

First: C[C@H](NC(=O)[C@H](CCCNC(=N)N)NC(=O)[C@H](CCC(N)=O)NC(=O)[C@@H]1CCCN1C(=O)[C@@H](N)[C@@H](C)O)C(=O)N[C@@H](CCCNC(=N)N)C(=O)N[C@@H](CCCNC(=N)N)C(=O)N[C@@H](CCCNC(=N)N)C(=O)N[C@@H](CCCCN)C(=O)N[C@@H](CCCCN)C(=O)N[C@@H](CCCNC(=N)N)C(=O)N[C@@H](CC(=O)O)C(N)=O (H-TPQRARRRKKRD-NH2)
Second: C[C@H](NC(=O)[C@H](CCCNC(=N)N)NC(=O)[C@H](CCC(N)=O)NC(=O)[C@@H]1CCCN1C(=O)[C@@H](N)[C@@H](C)O)C(=O)N[C@@H](CCCNC(=N)N)C(=O)N[C@@H](CCCNC(=N)N)C(=O)N[C@@H](CCCNC(=N)N)C(=O)N[C@@H](CCCCN)C(=O)N[C@@H](CCCCN)C(=O)N[C@@H](CCCNC(=N)N)C(=O)N[C@@H](CC(N)=O)C(N)=O (H-TPQRARRRKKRN-NH2)
The Ki of the first is lower: 0.05 µM for the first, over 0.1 µM for the second. The first binds more tightly here.

`C[C@H](NC(=O)[C@H](CCCNC(=N)N)NC(=O)[C@H](CCC(N)=O)NC(=O)[C@@H]1CCCN1C(=O)[C@@H](N)[C@@H](C)O)C(=O)N[C@@H](CCCNC(=N)N)C(=O)N[C@@H](CCCNC(=N)N)C(=O)N[C@@H](CCCNC(=N)N)C(=O)N[C@@H](CCCCN)C(=O)N[C@@H](CCCCN)C(=O)N[C@@H](CCCNC(=N)N)C(=O)N[C@@H](CCC(=O)O)C(N)=O` (H-TPQRARRRKKRE-NH2) and `C[C@H](NC(=O)[C@H](CCCNC(=N)N)NC(=O)[C@H](CCC(N)=O)NC(=O)[C@@H]1CCCN1C(=O)[C@@H](N)[C@@H](C)O)C(=O)N[C@@H](CCCNC(=N)N)C(=O)N[C@@H](CCCNC(=N)N)C(=O)N[C@@H](CCCNC(=N)N)C(=O)N[C@@H](CCCCN)C(=O)N[C@@H](CCCCN)C(=O)N[C@@H](CCCNC(=N)N)C(=O)N[C@@H](CCC(N)=O)C(N)=O` (H-TPQRARRRKKRQ-NH2) cannot be ordered by Ki: 0.103 µM for the first, over 0.1 µM for the second.

`C[C@H](NC(=O)[C@H](CCCNC(=N)N)NC(=O)[C@H](CCC(N)=O)NC(=O)[C@@H]1CCCN1C(=O)[C@@H](N)[C@@H](C)O)C(=O)N[C@@H](CCCNC(=N)N)C(=O)N[C@@H](CCCNC(=N)N)C(=O)N[C@@H](CCCNC(=N)N)C(=O)N[C@@H](CCCCN)C(=O)N[C@@H](CCCCN)C(=O)N[C@@H](CCCNC(=N)N)C(=O)N[C@@H](Cc1ccccc1)C(N)=O` (H-TPQRARRRKKRF-NH2) and `C[C@H](NC(=O)[C@H](CCCNC(=N)N)NC(=O)[C@H](CCC(N)=O)NC(=O)[C@@H]1CCCN1C(=O)[C@@H](N)[C@@H](C)O)C(=O)N[C@@H](CCCNC(=N)N)C(=O)N[C@@H](CCCNC(=N)N)C(=O)N[C@@H](CCCNC(=N)N)C(=O)N[C@@H](CCCCN)C(=O)N[C@@H](CCCCN)C(=O)N[C@@H](CCCNC(=N)N)C(=O)N[C@@H](Cc1c[nH]c2ccccc12)C(N)=O` (H-TPQRARRRKKRW-NH2) are within 1.5-fold of each other in Ki: 0.044 µM for the first, 0.034 µM for the second.

`C[C@H](NC(=O)[C@H](CCCNC(=N)N)NC(=O)[C@H](CCC(N)=O)NC(=O)[C@@H]1CCCN1C(=O)[C@@H](N)[C@@H](C)O)C(=O)N[C@@H](CCCNC(=N)N)C(=O)N[C@@H](CCCNC(=N)N)C(=O)N[C@@H](CCCNC(=N)N)C(=O)N[C@@H](CCCCN)C(=O)N[C@@H](CCCCN)C(=O)N[C@@H](CCCNC(=N)N)C(=O)N[C@@H](Cc1c[nH]cn1)C(N)=O` (H-TPQRARRRKKRH-NH2) and `CC(C)C[C@H](NC(=O)[C@H](CCCNC(=N)N)NC(=O)[C@H](CCCCN)NC(=O)[C@H](CCCCN)NC(=O)[C@H](CCCNC(=N)N)NC(=O)[C@H](CCCNC(=N)N)NC(=O)[C@H](CCCNC(=N)N)NC(=O)[C@H](C)NC(=O)[C@H](CCCNC(=N)N)NC(=O)[C@H](CCC(N)=O)NC(=O)[C@@H]1CCCN1C(=O)[C@@H](N)[C@@H](C)O)C(N)=O` (H-TPQRARRRKKRL-NH2) cannot be ordered by Ki: over 0.1 µM for the first, over 0.1 µM for the second.

Compared with `CC[C@H](C)[C@H](NC(=O)[C@H](CCCNC(=N)N)NC(=O)[C@H](CCCCN)NC(=O)[C@H](CCCCN)NC(=O)[C@H](CCCNC(=N)N)NC(=O)[C@H](CCCNC(=N)N)NC(=O)[C@H](CCCNC(=N)N)NC(=O)[C@H](C)NC(=O)[C@H](CCCNC(=N)N)NC(=O)[C@H](CCC(N)=O)NC(=O)[C@@H]1CCCN1C(=O)[C@@H](N)[C@@H](C)O)C(N)=O` (H-TPQRARRRKKRI-NH2), `CC(C)[C@H](NC(=O)[C@H](CCCNC(=N)N)NC(=O)[C@H](CCCCN)NC(=O)[C@H](CCCCN)NC(=O)[C@H](CCCNC(=N)N)NC(=O)[C@H](CCCNC(=N)N)NC(=O)[C@H](CCCNC(=N)N)NC(=O)[C@H](C)NC(=O)[C@H](CCCNC(=N)N)NC(=O)[C@H](CCC(N)=O)NC(=O)[C@@H]1CCCN1C(=O)[C@@H](N)[C@@H](C)O)C(N)=O` (H-TPQRARRRKKRV-NH2) is lower in Ki: over 0.1 µM for the first, 0.048 µM for the second.

`C[C@H](NC(=O)[C@H](CCCNC(=N)N)NC(=O)[C@H](CCC(N)=O)NC(=O)[C@@H]1CCCN1C(=O)[C@@H](N)[C@@H](C)O)C(=O)N[C@@H](CCCNC(=N)N)C(=O)N[C@@H](CCCNC(=N)N)C(=O)N[C@@H](CCCNC(=N)N)C(=O)N[C@@H](CCCCN)C(=O)N[C@@H](CCCCN)C(=O)N[C@@H](CCCNC(=N)N)C(=O)N[C@@H](CCCCN)C(N)=O` (H-TPQRARRRKKRK-NH2) and `C[C@H](NC(=O)[C@H](CCCNC(=N)N)NC(=O)[C@H](CCC(N)=O)NC(=O)[C@@H]1CCCN1C(=O)[C@@H](N)[C@@H](C)O)C(=O)N[C@@H](CCCNC(=N)N)C(=O)N[C@@H](CCCNC(=N)N)C(=O)N[C@@H](CCCNC(=N)N)C(=O)N[C@@H](CCCCN)C(=O)N[C@@H](CCCCN)C(=O)N[C@@H](CCCNC(=N)N)C(=O)N[C@@H](CCCNC(=N)N)C(N)=O` (H-TPQRARRRKKRR-NH2) cannot be ordered by Ki: over 0.1 µM for the first, over 0.1 µM for the second.

Going from `C[C@H](NC(=O)[C@H](CCCNC(=N)N)NC(=O)[C@H](CCC(N)=O)NC(=O)[C@@H]1CCCN1C(=O)[C@@H](N)[C@@H](C)O)C(=O)N[C@@H](CCCNC(=N)N)C(=O)N[C@@H](CCCNC(=N)N)C(=O)N[C@@H](CCCNC(=N)N)C(=O)N[C@@H](CCCCN)C(=O)N[C@@H](CCCCN)C(=O)N[C@@H](CCCNC(=N)N)C(=O)N1CCC[C@H]1C(N)=O` (H-TPQRARRRKKRP-NH2) to `C[C@H](NC(=O)[C@H](CCCNC(=N)N)NC(=O)[C@H](CCC(N)=O)NC(=O)[C@@H]1CCCN1C(=O)[C@@H](N)[C@@H](C)O)C(=O)N[C@@H](CCCNC(=N)N)C(=O)N[C@@H](CCCNC(=N)N)C(=O)N[C@@H](CCCNC(=N)N)C(=O)N[C@@H](CCCCN)C(=O)N[C@@H](CCCCN)C(=O)N[C@@H](CCCNC(=N)N)C(=O)N[C@H](C(N)=O)[C@@H](C)O` (H-TPQRARRRKKRT-NH2), the Ki falls from over 0.1 µM to 0.033 µM.
